The target of experiment [1] is T. cruzi mitochondrial Ca2+ uniporter complex, TcMICU2-KO cells (Trypanosoma cruzi, UniProt Q4DHJ5+Q4DL37+Q4DYG3). In words: Ca2+ uptake by digitonin-permeabilized TcMICU2-KO epimastigotes (calcium green-5N). Type of experiment: cell-based. Particulars: ~30 µM Ca2+, 5 mM succinate, initial rate, read-out: IC50, inhibition of mitochondrial Ca2+ uptake. The source says: (§1) We first tested the effect of different concentrations of inhibitors on Ca^2+ uptake, as measured by the change in fluorescence of calcium green 5-N, by digitonin-permeabilized control and TcMICU1-KO and TcMICU2-KO epimastigotes. These KO cells were obtained by the CRISPR/Cas9 method in previous work, and we used cells transfected with a scrambled sgRNA as control.
Sequence of T. cruzi mitochondrial Ca2+ uniporter complex, TcMICU2-KO cells (Q4DL37 entry or part of it): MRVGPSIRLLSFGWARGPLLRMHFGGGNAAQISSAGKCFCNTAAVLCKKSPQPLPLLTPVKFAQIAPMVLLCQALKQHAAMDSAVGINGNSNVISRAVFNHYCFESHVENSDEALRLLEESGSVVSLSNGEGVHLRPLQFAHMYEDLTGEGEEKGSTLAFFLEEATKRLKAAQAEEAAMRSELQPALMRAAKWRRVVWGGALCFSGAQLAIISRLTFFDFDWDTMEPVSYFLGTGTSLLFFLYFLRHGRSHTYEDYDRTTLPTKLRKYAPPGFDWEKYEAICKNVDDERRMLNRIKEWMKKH
Sequence of T. cruzi mitochondrial Ca2+ uniporter complex, TcMICU2-KO cells (Q4DYG3 entry or part of it): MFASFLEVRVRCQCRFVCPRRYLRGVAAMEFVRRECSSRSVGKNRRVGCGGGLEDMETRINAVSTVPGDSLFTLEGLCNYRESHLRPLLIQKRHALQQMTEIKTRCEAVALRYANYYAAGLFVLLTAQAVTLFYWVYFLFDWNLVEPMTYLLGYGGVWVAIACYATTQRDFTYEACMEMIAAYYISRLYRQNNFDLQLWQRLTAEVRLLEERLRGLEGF
Sequence of T. cruzi mitochondrial Ca2+ uniporter complex, TcMICU2-KO cells (Q4DHJ5 entry or part of it): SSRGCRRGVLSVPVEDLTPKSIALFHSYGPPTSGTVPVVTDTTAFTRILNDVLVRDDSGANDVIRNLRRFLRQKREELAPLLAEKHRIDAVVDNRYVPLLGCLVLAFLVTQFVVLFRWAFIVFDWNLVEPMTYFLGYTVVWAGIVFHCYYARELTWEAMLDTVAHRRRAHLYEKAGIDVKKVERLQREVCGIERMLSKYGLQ
(§2) Figure 2 Inhibition of mitochondrial Ca^2+ uptake by ruthenium-based compounds. Representative traces of Ca^2+ uptake by digitonin-permeabilized epimastigotes in control (a), TcMICU1-KO (b), and TcMICU2-KO (c) epimastigotes in the presence of different Ru360 concentrations. C, control cells; TcMICU1-KO cells; and TcMICU2-KO cells. The reaction was started after adding 50 μM digitonin (Dig) in the presence of ~30 μM CaCl2, 5 mM succinate, and 0.5 μM calcium green-5N, in the presence or absence of Ru360. Where indicated, 4 μM FCCP was added. (d–f) Dose–response inhibition of the initial rate of mitochondrial Ca^2+ uptake in control (C), TcMICU1-KO (1-KO), and TcMICU2-KO (2-KO) cells treated with RuRed (d), Ru360 (e) or Ru265 (f).
(§3) When dose–response effects were measured in TcMICU1-KO and TcMICU2-KO cells we noticed that these cells were, in general, more sensitive to the inhibitors.
(§4) Cells were collected by centrifugation at 1000× g for 7 min and washed twice with buffer A with glucose (BAG: 116 mM NaCl, 5.4 mM KCl, 0.8 mM MgSO4, 5.5 mM D-glucose, and 50 mM HEPES, pH 7.0). […] Mitochondrial Ca^2+ uptake was initiated by the addition of ~30 μM of free calcium, which was calculated using the software Maxchelator Calculator v1.2 (https://somapp.ucdmc.ucdavis.edu/pharmacology/bers/maxchelator/CaEGTA-NIST.htm). […] Fluorescence changes were monitored in an F-7000 fluorescence spectrophotometer (Hitachi, Dallas, TX, USA) with excitation at 506 nm and emission at 532 nm. […] Kd for Ca^2+ indicator probes in our conditions was determined, according to Chweih et al.. Uptake rate inhibitions were calculated as the first derivative of the absolute values of the slope by using the SLOPE Excel function for 200 points (300 to 500 s). […]

Experiment [2] concerns the target T. cruzi mitochondrial Ca2+ uniporter complex (MCUC), control cells (Trypanosoma cruzi, UniProt Q4DHJ5+Q4DL37+Q4DYG3). In words: Ca2+ uptake by digitonin-permeabilized control epimastigotes (calcium green-5N). It is filed as cell-based. The conditions noted are these: control (scrambled sgRNA) epimastigotes, ~30 µM Ca2+, 5 mM succinate, initial rate, read-out: IC50, inhibition of mitochondrial Ca2+ uptake.
Excerpt: as §1
As is shown in Figure 2a, extramitochondrial Ca^2+ was sequestered in the mitochondria of control cells and released by the uncoupler FCCP.
as §2, §4

The target in experiment [3] is T. cruzi mitochondrial Ca2+ uniporter complex, TcMICU1-KO cells (Trypanosoma cruzi, UniProt Q4DHJ5+Q4DL37+Q4DYG3). In words: Ca2+ uptake by digitonin-permeabilized TcMICU1-KO epimastigotes (calcium green-5N). It is filed as cell-based. The conditions noted are these: ~30 µM Ca2+, 5 mM succinate, initial rate, read-out: IC50, inhibition of mitochondrial Ca2+ uptake.
Sequence of T. cruzi mitochondrial Ca2+ uniporter complex, TcMICU1-KO cells (Q4DHJ5 entry or part of it): as above
Sequence of T. cruzi mitochondrial Ca2+ uniporter complex, TcMICU1-KO cells (Q4DL37 entry or part of it): as the sequence (Q4DL37 entry or part of it) above
Sequence of T. cruzi mitochondrial Ca2+ uniporter complex, TcMICU1-KO cells (Q4DYG3 entry or part of it): as the sequence (Q4DYG3 entry or part of it) above
Excerpt: as §1, §2, §3, §4

In experiment [4] the test system is T. cruzi epimastigotes (control, TcMICU1-KO, TcMICU2-KO). In words: Mitochondrial membrane potential of digitonin-permeabilized epimastigotes (safranine O). The conditions noted are these: TcMICU1-KO or TcMICU2-KO cells, succinate. Type of experiment: cell-based, Trypanosoma cruzi. The source says:
To determine whether the defect in mitochondrial Ca^2+ uptake in the presence of inhibitors was not secondary to mitochondrial membrane depolarization, we measured the mitochondrial membrane potential (Δψm) of digitonin-permeabilized epimastigotes using safranine O in the presence of succinate as mitochondrial substrate.
Figure 3 Effect of inhibitors on the mitochondrial membrane potential of epimastigotes. Changes in mitochondrial membrane potential (Δψm) of digitonin-permeabilized epimastigotes as detected by changes in safranine O fluorescence in control (a), TcMICU1-KO (b), and TcMICU2-KO (c) epimastigotes in the absence or presence of inhibitors. Cells (5 × 10^7) were added to the reaction buffer (2 mL) containing 0.2% BSA, 5 mM succinate, 50 μM EGTA and 5 μM safranine O. The reaction was started with 50 μM digitonin (DIG) in the presence or absence of the inhibitor, and 250 μM ADP, 1.5 μM carboxyatractyloside (CAT), 50 μM CaCl2 (Ca^2+), 200 μM EGTA, and 4 μM FCCP were added when indicated. A decrease in fluorescence after permeabilization with digitonin indicated the accumulation of the dye in energized mitochondria. The addition of ADP produced a small dissipation of membrane potential, indicating ADP phosphorylation. Δψm returned to its initial level after the addition of the adenine nucleotide translocator inhibitor CAT. The addition of FCCP collapsed the membrane potential. (d) Changes in safranine O fluorescence after digitonin addition (between 30 and 60 s) in control (C), TcMICU1-KO and TcMICU2-KO epimastigotes. […] Changes in safranine O fluorescence in control (C) (e), TcMICU1-KO (1-KO) (f), and TcMICU2-KO (2-KO) (g) epimastigotes after addition of ADP from three experiments like that shown in panels (a–c).
Estimation of mitochondrial membrane potential in situ was done spectrofluorometrically using the indicator dye safranine O, as described previously. […] Fluorescence changes were monitored using the Hitachi F-7000 spectrofluorometer (excitation of 495 nm and emission of 586 nm).

Experiment [5] relates to mammalian mitochondria. Particulars: cited from earlier work.
Experiment [6] relates to T. cruzi trypomastigotes. In words: Trypomastigote attachment assay to glutaraldehyde-fixed Vero cells. It is filed as cell-based, Trypanosoma cruzi. The conditions noted are these: 30 min preincubation with 1 µM antimycin A; 1 h at 37 °C on fixed Vero cells. As to the method: (§5) We analyzed the growth rate of epimastigotes in LIT medium at different Ru265 concentrations (1 µM, 5 µM, and 10 µM). […] The presence of metabolic inhibitors affects attachment and invasion of T. cruzi trypomastigotes to mammalian cells since these are an active process which depends on the expenditure of parasite energy. Preincubation of trypomastigotes for 30 min with antimycin A, which blocks electron transport from cytochrome b to c1, decreased the ability of trypomastigotes to attach to glutaraldehyde-fixed cells (Figure 4b) and invade intact host cells (Figure 4c).
(§6) Figure 4 Effect of Ru265 on Trypanosoma cruzi. (a) Effect of Ru265 on epimastigote growth. […] After 1 h of incubation at 37 °C, the cells were washed, and the number of attached trypomastigotes was counted. […] After 4 h of incubation at 37 °C, the cells were washed, and the number of intracellular parasites was counted. […] (f) Routine respiration (initial oxygen flux values), leak respiration after the addition of 0.5 µg/mL of oligomycin A, and electron transfer system (ETS) capacity after the sequential additions of FCCP (0.2 μM each) were measured for each condition. […] (g) Representative experiment showing mitochondrial Ca^2+ uptake by intact epimastigotes in relative fluorescence units (RFU). […] (h) Changes in fluorescence (before and after ionomycin addition) from three experiments like that shown in panel (g). […]

The subject of experiment [7] is T. cruzi trypomastigotes. In words: In vitro infection assay of Vero cells by trypomastigotes. Type of experiment: cell-based, Trypanosoma cruzi. The conditions noted are these: 30 min preincubation with 1 µM antimycin A; 4 h on Vero cells. As to the method: as §5, §6

Sequence of T. cruzi mitochondrial Ca2+ uniporter complex (MCUC), control cells (Q4DL37 entry or part of it): as the sequence (Q4DL37 entry or part of it) above
Sequence of T. cruzi mitochondrial Ca2+ uniporter complex (MCUC), control cells (Q4DHJ5 entry or part of it): as the sequence (Q4DHJ5 entry or part of it) above
Sequence of T. cruzi mitochondrial Ca2+ uniporter complex (MCUC), control cells (Q4DYG3 entry or part of it): as the sequence (Q4DYG3 entry or part of it) above
Sequence of T. cruzi mitochondrial Ca2+ uniporter complex (MCUC), control cells (Q4E667 entry or part of it, further chain): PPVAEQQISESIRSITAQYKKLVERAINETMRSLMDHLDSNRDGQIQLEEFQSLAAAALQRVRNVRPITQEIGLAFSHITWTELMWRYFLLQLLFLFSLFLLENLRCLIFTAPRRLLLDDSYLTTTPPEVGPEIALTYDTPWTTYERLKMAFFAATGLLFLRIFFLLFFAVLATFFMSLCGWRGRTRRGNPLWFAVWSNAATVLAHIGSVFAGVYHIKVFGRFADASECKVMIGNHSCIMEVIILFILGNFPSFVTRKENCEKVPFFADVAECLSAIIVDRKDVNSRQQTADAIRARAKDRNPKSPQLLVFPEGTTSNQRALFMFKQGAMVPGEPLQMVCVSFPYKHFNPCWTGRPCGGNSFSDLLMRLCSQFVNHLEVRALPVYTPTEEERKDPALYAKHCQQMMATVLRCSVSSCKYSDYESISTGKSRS

For the compound `N.N.N.N.N.N.N.N.[Cl][Ru+3].[NH]=[Ru][Cl]` [Ru265], the values for the IC50 in experiment [1], in experiment [2] and in experiment [3] were 14.1 ± 1.3 nM, 26.3 ± 2 nM and 12.1 ± 2.3 nM, respectively.

As to `N.N.N.N.N.N.N.N.N.N.N.N.N.N.[Cl-].[Cl-].[Cl-].[Cl-].[Cl-].[Cl-].[O-2].[O-2].[Ru+3].[Ru+3].[Ru+4]` [RuRed, ruthenium red], the IC50 (as a rule, the concentration needed to halve the response being measured) in experiment [1] is 11.9 ± 1.4 nM; in experiment [2], 117 ± 16.9 nM; in experiment [3], 148 ± 21.7 nM. For the same compound, the “Effect on mitochondrial membrane potential (Δψm) and response to ADP” value in experiment [4] is reported as “did not significantly affect”. Also, the “Effective concentration range in mammalian mitochondria” value in experiment [5] is recorded as “effective in the submicromolar range”.

In the case of `CCCCCC[C@H]1C(=O)O[C@H](C)[C@H](NC(=O)c2cccc(NC=O)c2O)C(=O)O[C@@H](C)[C@@H]1OC(=O)CC(C)C` [antimycin A], the “Ability of trypomastigotes to attach to glutaraldehyde-fixed cells” value in experiment [6] is recorded as “decreased”. In addition, in experiment [7], the “Ability of trypomastigotes to invade intact host cells” value is on record as “decreased”.

For Ru360, the IC50 in experiment [1] was 63.6 ± 6.9 nM; in experiment [2], 186 ± 15.2 nM; in experiment [3], 46.7 ± 2.7 nM. The “Effect on mitochondrial membrane potential (Δψm) and response to ADP” value in experiment [4] was “did not significantly affect”.
